The nature of series [1]: Moisture absorption measurement in a Constant Temperature & Humidity Chamber. It is filed as physicochemical. Particulars: for Moisture absorption rate, % / Weight gain after moisture absorption: after 5 days; for Weight gain after moisture absorption: about 1 g sample; for Appearance before experiment: before placing in chamber, open glass culture dish. How it is done: On the day before the constant temperature and moisture test, two dry glass culture dishes (without covers) are taken and placed in a Constant Temperature & Humidity Chamber at 25±1° C. and relative humidity of 75±2% for 4 h. The processed dishes are taken out and weighed accurately. The experiment is repeated until the weight is constant, and the data is recorded in Table 3.
Step 2. The raw material LNTII solid amorphous powder and the crystalline form B of LNTII obtained from Example 1 are weighed separately, placed in a glass culture dish without cover with constant weight in Step 1. The culture dish with samples added are placed in a Constant Temperature & Humidity Chamber at 25° C. and relative humidity of 75%. After 5 days, the samples are taken out to observe the appearance changes, weigh, and calculate the moisture absorption. The results are recorded in Table 2 and Table 3, respectively. The results of samples morphology before and after moisture absorption are shown in FIG. 5 and FIG. 6, respectively.
According to the method described herein in Example 9, the crystalline form B of LNTII prepared according to Examples 1-8 is placed in a glass culture dish without cover with constant weight in Step 1. The culture dish with samples added are placed in a Constant Temperature & Humidity Chamber at 25° C. and relative humidity of 75%. After 5 days, the samples are taken out to observe the appearance changes, weigh, and calculate the moisture absorption.

The nature of series [2]: Stability study in a Constant Temperature & Humidity Chamber (LNTII content by HPLC and appearance). It is filed as physicochemical. The following applies: for Content, % (At the end of the 1st month): sealed with aluminum compound packing film; for Content, % (At the end of the 1st month) / Appearance (At the end of the 1st month): 1 month; for Appearance (At the end of the 1st month) / Content, % (At the end of the 2nd month) / Appearance (At the end of the 3rd month) / Content, % (At the end of the 3rd month): sealed; for Content, % (At the end of the 2nd month): 2 months; for Content, % (Day 0): LNTII content by HPLC. How it is done: In this invention, high-performance liquid chromatography (HPLC) is used to detect the content of LNTII under the following detection conditions:
Chromatographic column: Asahipak NH2P-504E 4.6 mm×250 mm, 5 μm, mobile phase: acetonitrile: water=65:35, flow rate: 1 mL/min, detector: UV-VIS detector, wavelength: 210 nm, column temperature: 30° C., sample volume: 10 μL, and the running time of 30 min.
An amount of 10 g of raw material before crystallization (i.e. LNTII amorphous powder obtained by spray-drying) and 10 g of crystalline form B of LNTII prepared by the method described herein in Examples 1-8 are weighed respectively, sealed with aluminum compound packing film, and placed in a Constant Temperature & Humidity Chamber under the test conditions of at constant temperature of 40° C. and relative humidity of 75%. Samples are taken at the end of the 1st month, the 2nd month, and the 3rd month to test the content of LNTII and observe its appearance.

Where [3] appears, read: 25° C., relative humidity 75%, Table 3, (weight gain/sample weight) × 100%.
[4] abbreviates: 40° C., relative humidity 75%, 3 months.
The mark [5] stands for this setting: 25° C., relative humidity 75%, Table 4, Examples 1-8.

These results are taken from patent US20250333431A1, “NEW CRYSTAL FORM OF TRISACCHARIDE” (SHANDONG HENGLU BIOTECH. CO., LTD., priority 2022, published 2025).

Each structure is given as a SMILES string.

As for `CC(=O)NC1C(O)[C@H](O)C(CO)O[C@H]1OC1C(O)[C@H](O[C@@H]2C(CO)OC(O)C(O)C2O)OC(CO)[C@@H]1O` (stereo partly shown) [Crystalline form B of LNTII, Lacto-N-triose II], in series [1] (25° C., relative humidity 75%, 5 days, conclusion from Tables 2 and 3), the “Stability compared with amorphous powder (from appearance and moisture absorption)” value is listed as “better than that of amorphous powder”. In series [1] (setting [3]), the “Moisture absorption rate, %” value was 16.16%. Further, in series [1] (25° C., relative humidity 75%), the “Weight gain after moisture absorption” value stood at 0.1617. Besides, the Appearance before experiment entry in series [1] is recorded as “Off-white”.
Consider `CC(=O)NC1C(O)[C@H](O)C(CO)O[C@H]1OC1C(O)[C@H](O[C@@H]2C(CO)OC(O)C(O)C2O)OC(CO)[C@@H]1O` (single isomer, unassigned) [Crystalline form B in Example 7, Lacto-N-triose II], for which, in series [2] (40° C., relative humidity 75%), the “Content, % (At the end of the 1st month)” value came out at 93.77%; the “Appearance (At the end of the 1st month)” value is given as “Off-white”; the “Content, % (At the end of the 2nd month)” value is on record as 93.81%. In addition, in series [2] (setting [4]), the “Appearance (At the end of the 3rd month)” value is on record as “Off-white” and the “Content, % (At the end of the 3rd month)” value came to 93.75%. For the same molecule, in series [2], the “Content, % (Day 0)” value worked out at 93.8%. For the same molecule, the “Moisture absorption rate, %” value in series [1] (setting [5]) is listed as 13.04%.
As for `CC(=O)NC1C(O)[C@H](O)C(CO)O[C@H]1OC1C(O)[C@H](O[C@@H]2C(CO)OC(O)C(O)C2O)OC(CO)[C@@H]1O` (single isomer, unassigned) [Crystalline form B in Example 3, Lacto-N-triose II], in series [2] (40° C., relative humidity 75%), the “Content, % (At the end of the 1st month)” value was 96.92%; the “Appearance (At the end of the 1st month)” value is “Off-white”; the “Content, % (At the end of the 2nd month)” value was 96.93%. Besides, in series [2] (setting [4]), the “Appearance (At the end of the 3rd month)” value was “Off-white” and the “Content, % (At the end of the 3rd month)” value is 96.84%. The “Content, % (Day 0)” value in series [2] is reported as 96.9%. Also, the “Moisture absorption rate, %” value in series [1] (setting [5]) is given as 13.57%.
For `CC(=O)NC1C(O)[C@H](O)C(CO)O[C@H]1OC1C(O)[C@H](O[C@@H]2C(CO)OC(O)C(O)C2O)OC(CO)[C@@H]1O` (single isomer, unassigned) [Crystalline form B in Example 4, Lacto-N-triose II], in series [2] (40° C., relative humidity 75%), the “Content, % (At the end of the 1st month)” value is 96.13%; the “Appearance (At the end of the 1st month)” value is “Off-white”; the “Content, % (At the end of the 2nd month)” value is listed as 96.06%. Further, in series [2] (setting [4]), the “Appearance (At the end of the 3rd month)” value is on record as “Off-white” and the “Content, % (At the end of the 3rd month)” value is 96.07%. Moreover, the “Content, % (Day 0)” value in series [2] is given as 96.1%. In series [1] (setting [5]), the “Moisture absorption rate, %” value was 13.81%.
`CC(=O)NC1C(O)[C@H](O)C(CO)O[C@H]1OC1C(O)[C@H](O[C@@H]2C(CO)OC(O)C(O)C2O)OC(CO)[C@@H]1O` (stereo partly shown) [LNTII amorphous powder, Lacto-N-triose II, reference compound]: in series [2] (setting [4]), the “Change of LNTII content during the stability experiment” value was “showed a decreasing trend”; the “Change of appearance/color during the stability experiment” value is recorded as “gradually changed to faint yellow”; the “Content, % (At the end of the 3rd month)” value is 90.01%. For the same molecule, in series [2] (40° C., relative humidity 75%), the “Content, % (At the end of the 1st month)” value amounted to 91.01%; the “Appearance (At the end of the 1st month)” value is given as “Off-white”; the “Content, % (At the end of the 2nd month)” value amounted to 90.86%. In series [2], the “Content, % (Day 0)” value worked out at 91.24%. The “Moisture absorption rate, %” value in series [1] (setting [3]) came out at 29.47%. Further, in series [1] (25° C., relative humidity 75%), the “Weight gain after moisture absorption” value stood at 0.2951. In addition, in series [1], the Appearance before experiment result is reported as “Off-white powder”.
Regarding `CC(=O)NC1C(O)[C@H](O)C(CO)O[C@H]1OC1C(O)[C@H](O[C@@H]2C(CO)OC(O)C(O)C2O)OC(CO)[C@@H]1O` (single isomer, unassigned) [Crystalline form B in Example 5, Lacto-N-triose II], in series [2] (40° C., relative humidity 75%), the “Content, % (At the end of the 1st month)” value is 93.56%; the “Appearance (At the end of the 1st month)” value is given as “Off-white”; the “Content, % (At the end of the 2nd month)” value was 93.48%. In addition, in series [2] (setting [4]), the “Appearance (At the end of the 3rd month)” value was “Off-white” and the “Content, % (At the end of the 3rd month)” value was determined as 93.34%. Besides, the “Content, % (Day 0)” value in series [2] came out at 93.4%. For the same molecule, the “Moisture absorption rate, %” value in series [1] (setting [5]) worked out at 13.79%.
As to `CC(=O)NC1C(O)[C@H](O)C(CO)O[C@H]1OC1C(O)[C@H](O[C@@H]2C(CO)OC(O)C(O)C2O)OC(CO)[C@@H]1O` (single isomer, unassigned) [Crystalline form B in Example 2, Lacto-N-triose II], in series [2] (40° C., relative humidity 75%), the “Content, % (At the end of the 1st month)” value stood at 96.44%; the “Appearance (At the end of the 1st month)” value is recorded as “Off-white”; the “Content, % (At the end of the 2nd month)” value amounted to 96.42%. Further, in series [2] (setting [4]), the “Appearance (At the end of the 3rd month)” value is listed as “Off-white” and the “Content, % (At the end of the 3rd month)” value turned out to be 96.38%. Also, in series [2], the “Content, % (Day 0)” value came to 96.5%. Further, the “Moisture absorption rate, %” value in series [1] (setting [5]) was 14.36%.
With `CC(=O)NC1C(O)[C@H](O)C(CO)O[C@H]1OC1C(O)[C@H](O[C@@H]2C(CO)OC(O)C(O)C2O)OC(CO)[C@@H]1O` (single isomer, unassigned) [Crystalline form B in Example 8, Lacto-N-triose II], in series [2] (40° C., relative humidity 75%), the “Content, % (At the end of the 1st month)” value stood at 96.48%; the “Appearance (At the end of the 1st month)” value is reported as “Off-white”; the “Content, % (At the end of the 2nd month)” value is 96.49%. In addition, in series [2] (setting [4]), the “Appearance (At the end of the 3rd month)” value is “Off-white” and the “Content, % (At the end of the 3rd month)” value worked out at 96.46%. For the same molecule, in series [2], the “Content, % (Day 0)” value amounted to 96.5%. Besides, in series [1] (setting [5]), the “Moisture absorption rate, %” value was determined as 13.61%.
In the case of `CC(=O)NC1C(O)[C@H](O)C(CO)O[C@H]1OC1C(O)[C@H](O[C@@H]2C(CO)OC(O)C(O)C2O)OC(CO)[C@@H]1O` (single isomer, unassigned) [Crystalline form B in Example 1, Lacto-N-triose II], in series [2] (40° C., relative humidity 75%), the “Content, % (At the end of the 1st month)” value came out at 96.81%; the “Appearance (At the end of the 1st month)” value is listed as “Off-white”; the “Content, % (At the end of the 2nd month)” value is given as 96.78%. Also, in series [2] (setting [4]), the “Appearance (At the end of the 3rd month)” value is recorded as “Off-white” and the “Content, % (At the end of the 3rd month)” value turned out to be 96.76%. In series [2], the “Content, % (Day 0)” value came to 96.8%. For the same molecule, the “Moisture absorption rate, %” value in series [1] (setting [5]) stood at 14.02%.
For the molecule `CC(=O)NC1C(O)[C@H](O)C(CO)O[C@H]1OC1C(O)[C@H](O[C@@H]2C(CO)OC(O)C(O)C2O)OC(CO)[C@@H]1O` (single isomer, unassigned) [Crystalline form B in Example 6, Lacto-N-triose II], in series [2] (40° C., relative humidity 75%), the “Content, % (At the end of the 1st month)” value came out at 92.43%; the “Appearance (At the end of the 1st month)” value is given as “Off-white”; the “Content, % (At the end of the 2nd month)” value worked out at 92.39%. In series [2] (setting [4]), the “Appearance (At the end of the 3rd month)” value is “Off-white” and the “Content, % (At the end of the 3rd month)” value came out at 92.31%. Besides, the “Content, % (Day 0)” value in series [2] was 92.4%. In addition, the “Moisture absorption rate, %” value in series [1] (setting [5]) was 13.32%.
